From the CheMixHub viscosity set
Several values for one entry are separate records, joined by “and”; a condition that tells them apart may be missing. Equal entries are not always repeated.

Assays:
[1] = 100 kPa
[2] = xn = mol fraction of the nth substance listed

CCCCCC(C)C
[1]
Details | viscosity [mPa·s]
293.15 K | 0.5
303.15 K | 0.444
313.15 K | 0.393
323.15 K | 0.355

CCOS(=O)(=O)[O-].CC[N+](CC)=C(N(C)C)N(C)C
[1]
Details | viscosity
293.15 K | 190.9 mPa·s and 190.9 mPa·s
298.15 K | 139 mPa·s and 139 mPa·s
303.15 K | 104.9 mPa·s and 104.9 mPa·s
308.15 K | 80.44 mPa·s and 80.44 mPa·s
313.15 K | 63.24 mPa·s and 63.24 mPa·s
318.15 K | 50.27 mPa·s and 50.27 mPa·s
323.15 K | 40.55 mPa·s and 40.55 mPa·s

C[C@H](N)C(=O)N[C@@H](C)C(=O)O + O
viscosity [mPa·s], [2], 101 kPa
Details | x1 = 3.87e-05 | x1 = 7.58e-05 | x1 = 0.000107 | x1 = 0.00015 | x1 = 0.000172 | x1 = 0.0002106 | x1 = 0.0002561 | x1 = 0.0002871 | x1 = 0.0003202 | x1 = 0.0003571
305.15 K | 0.7669 | 0.7674 | 0.7681 | 0.7688 | 0.7719 | 0.7741 | 0.7782 | 0.7795 | 0.7798 | 0.7828
310.15 K | 0.7029 | 0.7032 | 0.7033 | 0.7061 | 0.7067 | 0.7084 | 0.7089 | 0.7115 | 0.7139 | 0.7167
315.15 K | 0.6416 | 0.6452 | 0.6473 | 0.6487 | 0.6499 | 0.6499 | 0.6519 | 0.6548 | 0.6573 | 0.6608

C[N+](C)(C)CCO.O=C([O-])c1ccccn1 + O
[2], 300 K, 100 kPa
Details | viscosity [mPa·s]
x2 = 0.5 | 232.8
x2 = 0.68 | 35.3
x2 = 0.81 | 16.4

CCCCOCCO + O=C1CCCCC1
[2], 298.15 K, 101 kPa
Details | viscosity
x2 = 0.118 | 2.522 mPa·s and 2.642 mPa·s
x2 = 0.2314 | 2.28 mPa·s and 2.518 mPa·s
x2 = 0.3404 | 2.108 mPa·s and 2.402 mPa·s
x2 = 0.4453 | 1.972 mPa·s and 2.304 mPa·s
x2 = 0.5463 | 1.873 mPa·s and 2.217 mPa·s
x2 = 0.6436 | 1.795 mPa·s and 2.146 mPa·s
x2 = 0.7375 | 1.763 mPa·s and 2.087 mPa·s
x2 = 0.8281 | 1.766 mPa·s and 2.048 mPa·s
x2 = 0.9155 | 1.822 mPa·s and 2.024 mPa·s

CCOC(=O)CCl + O=C1CCCCC1
viscosity [mPa·s], [2], 101.3 kPa
Details | x1 = 0.1084 | x1 = 0.2069 | x1 = 0.306 | x1 = 0.3993 | x1 = 0.5032 | x1 = 0.6002 | x1 = 0.6945 | x1 = 0.7947 | x1 = 0.8975
298.15 K | 1.745 | 1.604 | 1.493 | 1.403 | 1.352 | 1.283 | 1.23 | 1.191 | 1.144
303.15 K | 1.595 | 1.47 | 1.376 | 1.298 | 1.244 | 1.184 | 1.139 | 1.101 | 1.058
308.15 K | 1.444 | 1.336 | 1.259 | 1.19 | 1.135 | 1.087 | 1.047 | 1.011 | 0.972

CNC=O + O=C1CCCCC1
viscosity [mPa·s], [2], 101 kPa
Details | x1 = 0.0868 | x1 = 0.1762 | x1 = 0.2682 | x1 = 0.3632 | x1 = 0.461 | x1 = 0.562 | x1 = 0.6662 | x1 = 0.7738 | x1 = 0.885
303.15 K | 1.804 | 1.786 | 1.762 | 1.739 | 1.714 | 1.693 | 1.668 | 1.646 | 1.618
308.15 K | 1.645 | 1.63 | 1.61 | 1.592 | 1.57 | 1.553 | 1.532 | 1.513 | 1.49
313.15 K | 1.472 | 1.463 | 1.451 | 1.439 | 1.425 | 1.413 | 1.4 | 1.387 | 1.371
318.15 K | 1.284 | 1.284 | 1.283 | 1.281 | 1.278 | 1.275 | 1.271 | 1.267 | 1.262
